Source: patent publication US10206979B2, “Treatment agent for cognitive impairment induced by amyloid beta-protein, therapeutic agent for alzheimer's disease, and treatment method and pathological analysis method related to these” (NATIONAL UNIVERSITY CORPORATION OKAYAMA UNIVERSITY, priority 2013, dated 2019)
No end group written: not given here.

What was measured:
[1] = system: memory disorder induced by amyloid β protein oligomer; experiment: novel object recognition test in mouse model of memory disorder by administration of the amyloid β protein oligomer; assay type: in vivo, ICR mice; settings: for ability to remember (exploration time for novel object vs familiar object): 1 μM amyloid β protein oligomer + 10 μM peptide in artificial cerebrospinal fluid, 3.5 μl/side to lateral ventricles, test session 24 h after training, paired t-test
Protocol: Preparation of a mouse model of memory disorder by administration of the amyloid β protein oligomer, and evaluation of the ability of memory acquisition by a novel object recognition test were carried out according to an earlier paper (Balducci et al., Proc Natl Acad Sci USA 107, 2295-2300, 2010).
ICR mice (6 to 7 weeks old) were anesthetized with ketamine (100 mg/kg) and xylazine (40 mg/kg), and each mouse was fixed on a brain stereotaxic apparatus. After removal of the scalp, small holes were made on the skull on the lateral ventricles, and guide cannulae (23 gage) were bilaterally embedded at the positions of ±1.0 mm lateral and 0.65 mm posterior to the bregma. The guide cannulae were fixed with a dental resin. After a period of four to five days for recovery from the surgery, each mouse was allowed to move freely for 10 minutes in order to allow acclimatization to the environment in a test cage (39 cm×22 cm) (habituation). This was continued for 3 days. On the next day, an artificial cerebrospinal fluid (control), artificial cerebrospinal fluid in Which 1 μM amyloid β protein oligomer is dissolved, or artificial cerebrospinal fluid in which 1 μM amyloid β protein oligomer and 10 μM p3-Alcβ37 peptide or a partial peptide thereof are dissolved, was bilaterally administered (3.5 μl/side) to the lateral ventricles through the guide cannulae embedded in the head, using an injection cannulae (30 gage, 1.7 mm from the brain surface).
Two hours after the administration, two identical objects (glass vials each having a plastic cap [objects A]: 3-cm diameter×6.5-cm height) were placed in the test cage for which the habituation had been carried out, such that the objects were positioned about 20 cm distant from each other. In the test cage, each mouse was allowed to move freely for 10 minutes to allow learning of the object A (training session). On the next day, 24 hours after the learning, a test was carried out to investigate if the mouse remembered the object A, which was presented on the previous day (test session). More specifically, in the same test cage, the object A presented on the previous day (that is, a familiar object) and a novel object (a metal cube [object B]: 4 cm×4 cm×4 cm) were placed at the same positions as those used on the previous day, and the mouse was allowed to move freely for 10 minutes in the test cage. In normal mice, since they naturally show interest in novel objects, the time for exploring the novel object (object B) is longer than the time for exploring the familiar object (object A). […] The exploratory behavior for each object was recorded using a video camera, and the total exploration time for each object was calculated. The time spent for contacting or approach of the head to the object (including sniffing), and contacting of a forelimb or hindlimb with the object was included in the exploration time. The ability of memory acquisition of the mice in each group was represented using the discrimination index. The discrimination index was defined as follows: ([exploration time for novel object]−[exploration time for familiar object ])/([exploration time for novel object]+[exploration time for familiar object]). In cases where discrimination between the novel object and the familiar object is impossible, the discrimination index is 0, while in cases where the exploration time for the novel object is longer than the exploration time for the familiar object, the discrimination index is positive. […] Therefore, the calculation of the exploration time and the discrimination index was carried out based on the behavior observed during the first 5 minutes after the placement of the mouse in the test cage.
In terms of the reagents used, the composition of the artificial cerebrospinal fluid was as follows: 137 mM NaCl, 3 mM KCl, 1 mM MgCl2, 1.2 mM CaCl2, 2.5 mM glucose, and 2 mM sodium phosphate buffer (pH 7.4). […]

[2] = system: memory disorder induced by MK-801 (NMDA receptor-dependent memory disorder); experiment: novel object recognition test in mouse model of memory disorder prepared by administration of NMDA receptor inhibitor MK-801; assay type: in vivo, ICR mice; settings: 10 μM peptide to cerebral ventricle; (+)-MK-801 maleate 2 mg/kg intraperitoneally; paired t-test, P>0.05
Protocol: ICR mice (6 to 7 weeks old) were anesthetized with ketamine (100 mg/kg) and xylazine (40 mg/kg), and each mouse was fixed on a brain stereotaxic apparatus. After removal of the scalp, small holes were made on the skull on the lateral ventricles, and guide cannulae (23 gage) were bilaterally embedded at the positions of ±1.0 mm lateral and 0.65 mm posterior to the bregma. The guide cannulae were fixed with a dental resin. After a period of four to five days for recovery from the surgery, each mouse was allowed to move freely for 10 minutes in order to allow acclimatization to the environment in a test cage (39 cm×22 cm) (habituation). This was continued for 3 days. […]
Two hours after the administration, two identical objects (glass vials each having a plastic cap [objects A]: 3-cm diameter×6.5-cm height) were placed in the test cage for which the habituation had been carried out, such that the objects were positioned about 20 cm distant from each other. […] The exploratory behavior for each object was recorded using a video camera, and the total exploration time for each object was calculated. […]

Sequence	ability to remember (exploration time for novel object vs familiar object) [1]	discrimination index relative to the group in which the oligomer was administered ([1]; 1 μM oligomer + 10 μM peptide, lateral ventricles, Tukey test, P<0.01)	discrimination index relative to the group in which the artificial cerebrospinal fluid was administered ([1]; 1 μM oligomer + 10 μM peptide, lateral ventricles, Tukey test, P>0.05)	effect to ameliorate memory disorder (exploration time for novel object vs familiar object) [2]
GHSLASSHRNSMIPSAAT (a part of p3-Alc beta 37 (position 20-37)) [p3-Alcβ37 [20-37], partial peptide corresponding to positions 20 to 37 of p3-Alcβ37]	no recovery of the ability to remember	–	–	–
HRGHQPPPEMA (a part of p3-Alc beta 37 (position 9-19)) [p3-Alcβ37[9-19], partial peptide corresponding to positions 9 to 19 of p3-Alcβ37 (11 amino acids)]	ability to remember showed remarkable recovery	–	–	–
VLSSQQFLHRG (a part of p3-Alc beta 37 (position 1-11)) [p3-Alcβ37[1-11], partial peptide corresponding to positions 1 to 11 of p3-Alcβ37]	ability to remember remained impaired	–	–	–
VLSSQQFLHRGHOPPPEMA (VLSSQQFLHRGHQPPPEMA; not fully specified) [p3-Alcβ37 [1-19], partial peptide corresponding to positions 1 to 19 of p3-Alcβ37]	remarkable recovery of the ability to remember	–	–	–
VLSSQQFLHRGHQPPPEMAGHSLASSHRNSMIPSAAT (listed as Homo sapiens) [p3-Alcβ37, peptide composed of 37 amino acids produced by cleavage of Alcadein-β by γ-secretase and α-secretase]	remarkable recovery of the ability to remember	significant increase in the discrimination index	No significant difference in the discrimination index	effect to ameliorate memory disorder was not found
